From patent US6472413B2, “Heteroarylacryloylaminoalkyl-substituted benzenesulfonamide derivatives, their preparation, their use and pharmaceutical preparations comprising them” (Adventis Pharma Deutschland GmbH, priority 2000, dated 2002)

How the values were obtained:
[1] = system: papillary muscle of the guinea pig; assay: Action potential duration on the papillary muscle of the guinea pig (relengthening of hypoxia-shortened APD90); assay type: cell-based; settings: concentration 2 μM, 60 min after addition, percentage in relation to the shortening caused by hypoxia
Source text: Action Potential Duration on the Papillary Muscle of the Guinea Pig
ATP deficiency states, observed during ischemia in the cardiac muscle cell, lead to a shortening of the action potential duration (ATP=adenosine triphosphate). They are regarded as one of the causes of so-called reentry arrhythmias, which can cause sudden cardiac death. The opening of ATP-sensitive potassium channels by the lowering of the ATP level is regarded as the cause of this. For the measurement of the action potential on the papillary muscle of the guinea pig a standard microelectrode technique was employed.
Guinea pigs of both sexes were killed by a blow to the head, the hearts were removed, and the papillary muscles were separated out and suspended in an organ bath. The organ bath was rinsed with Ringer's solution (136 mmol/l of NaCl, 3.3 mmol/l of KCl, 2.5 mmol/l of CaCl2, 1.2 mmol/l of KH2PO4, 1.1 mmol/l of MgSO4, 5.0 mmol/l of glucose, 10.0 mmol/l of 1-(2-hydroxyethyl)piperazine-4-(2-ethanesulfonic acid) (HEPES), pH adjusted to 7.4 with NaOH) and aerated with 100% oxygen at a temperature of 37° C. The muscle was stimulated with square-wave pulses of 1 V and 1 ms duration and a frequency of 1 Hz by means of an electrode. The action potential was derived and recorded by means of a glass microelectrode inserted intracellularly, which was filled with 3 mol/l of KCl solution. The compound to be tested was added to the Ringer's solution in a concentration of 2 μmol/l. The action potential was amplified using an amplifier from Hugo Sachs (March-Hugstetten, Germany) and stored and analyzed by means of a computer. The duration of the action potential was determined at a degree of repolarization of 90% (APD90). After an equilibration time of 30 min, the action potential shortening was produced by rinsing the papillary muscle with a hypoxic NaCl solution. The glucose was removed here, the HEPES buffer replaced by PIPES buffer (piperazine-1,4-bis(2-ethanesulfonic acid)), the pH was adjusted to 6.5, and the aeration was carried out using 100% nitrogen. After a time of 60 min, this led to a marked shortening of the APD90. After this time, the test compound was added and the relengthening of the action potential recorded after a further 60 min. The compound-caused relengthening of the APD90 was calculated as a percentage, in relation to the shortening caused by hypoxia. The test compounds were added to the bath solution as stock solution in propanediol.
The following relengthenings of the APD90 values were observed.

hSUR1/hKir6.2 = hSUR1/hKir6.2 (Homo sapiens, UniProt Q09428+Q14654); assay: Action on hSUR1/hKir6.2-transfected CHO cells (hypoglycemic action), membrane potential by DIBAC4 fluorescence (FLIPR); assay type: cell-based; settings: concentration 10 μM; CHO cells activated with diaxozide; mean of at least 4 experiments
Source text: Action on hSUR1/hKir6.2-transfected CHO Cells (Hypoglycemic Action)
The target organ of these compounds is the β cell of the pancreas where they block ATP-sensitive potassium channels and produce a release of the hypoglycemic hormone insulin by influencing the electrical potential of the cell membrane.
The extent of this depolarization of the cell membrane, which is caused by the compounds according to the invention, was investigated on CHO cells that were transfected with the cloned components of human pancreatic ATP-sensitive potassium channels, hSUR1, and hKir6.2, and activated by pretreatment with diaxozide, an opener of ATP-sensitive potassium channels. The potency of a compound with respect to the membrane potential of these transfected and activated CHO cells is a measure of the hypoglycemic potential of this compound.
On the day of measurement, the microtiter plates were washed three times with PBS (physiological buffer solution). In the last washing step, 90 μl remained in each well. The cells were then loaded with the fluorescent dye DIBAC4 (Molecular Probes, Portland, Oreg., USA) by addition of 90 μl of a 10-micromolar solution of DIBAC4 in PBS and of 90 μl of a 400 micromolar solution of diaxozide in PBS to each well. After an incubation time of 30 min at 37° C., the microtiter plates were then transferred to a fluorescent microtiter plate reader (FLIPR; Molecular Devices, Sunnyvale, Calif., USA). The cells were stimulated by means of an argon laser (Innova 90; Coherent, Santa Clara, Calif., USA) at a wavelength of 488 nm and the fluorescence emission was measured by means of a CCD camera. The measurement of the membrane potential began after 4 min by addition of 20 μl of a solution of the test compound or of the control solution to each well, the resulting fluorescence emission being measured every 20 seconds for a period of 20 min. The data shown are mean values of at least 4 experiments.

[2] = system: chloroform-induced ventricular fibrillation in the mouse; assay: Chloroform-induced ventricular fibrillation in the mouse (action in the case of vagal dysfunction); assay type: in vivo; settings: 3 mg/kg i.p., 30 min before chloroform anesthesia, percentage of mice with ventricular fibrillation, untreated control 100%
Source text: Chloroform-induced Ventricular Fibrillation in the Mouse (Action in the Case of Vagal Dysfunction)
Hypoactivity of the vagal nervous system leads to hyperactivity of the sympathetic nervous system. Damages to health that result from an inequilibrium of the autonomic nervous system when the dysfunction affects the heart include the weakening of the myocardial contractile force and fatal cardiac arrhythmias such as ventricular fibrillation. The action of the test compounds was investigated in the model of chloroform-induced ventricular fibrillation in the mouse (see J. W. Lawson, Antiarrhythmic activity of some isoquinoline derivatives determined by a rapid screening procedure in the mouse; J. Pharmacol. Exp. Ther. 160 (1968) 22).
The test compound was dissolved in a mixture of dimethyl sulfoxide (DMSO) and 10 percent sodium hydrogencarbonate solution and administered intraperitoneally (i.p.). The dose was 3 mg/kg. 30 min later, the mouse was anesthetized with chloroform in a beaker. As soon as respiratory arrest had occurred under deep anesthesia (toxic stage of anesthesia), the thorax of the animal was opened using a pair of scissors and the heartbeat was visually inspected. It can be determined here at a glance whether the heart is beating, fibrillating, or has stopped. The respiratory arrest induced by chloroform leads, via an absolute anoxia (oxygen deficiency) in combination with a direct stimulating action of chloroform on the sympathetic nervous system, to a strong stimulation of the sympathetic nervous system, which in turn, and in combination with the energy deficiency caused by oxygen deficiency, leads in the heart to the fatal arrhythmia, ventricular fibrillation. This toxic chloroform anesthesia led to ventricular fibrillation in 100% of the untreated mice (control). The percentage proportion of the mice with ventricular fibrillation in the individual test groups (consisting of n animals) is indicated as the fibrillation ratio.
The following fibrillation ratios were observed.

Chain of hSUR1/hKir6.2 (Q09428 whole entry): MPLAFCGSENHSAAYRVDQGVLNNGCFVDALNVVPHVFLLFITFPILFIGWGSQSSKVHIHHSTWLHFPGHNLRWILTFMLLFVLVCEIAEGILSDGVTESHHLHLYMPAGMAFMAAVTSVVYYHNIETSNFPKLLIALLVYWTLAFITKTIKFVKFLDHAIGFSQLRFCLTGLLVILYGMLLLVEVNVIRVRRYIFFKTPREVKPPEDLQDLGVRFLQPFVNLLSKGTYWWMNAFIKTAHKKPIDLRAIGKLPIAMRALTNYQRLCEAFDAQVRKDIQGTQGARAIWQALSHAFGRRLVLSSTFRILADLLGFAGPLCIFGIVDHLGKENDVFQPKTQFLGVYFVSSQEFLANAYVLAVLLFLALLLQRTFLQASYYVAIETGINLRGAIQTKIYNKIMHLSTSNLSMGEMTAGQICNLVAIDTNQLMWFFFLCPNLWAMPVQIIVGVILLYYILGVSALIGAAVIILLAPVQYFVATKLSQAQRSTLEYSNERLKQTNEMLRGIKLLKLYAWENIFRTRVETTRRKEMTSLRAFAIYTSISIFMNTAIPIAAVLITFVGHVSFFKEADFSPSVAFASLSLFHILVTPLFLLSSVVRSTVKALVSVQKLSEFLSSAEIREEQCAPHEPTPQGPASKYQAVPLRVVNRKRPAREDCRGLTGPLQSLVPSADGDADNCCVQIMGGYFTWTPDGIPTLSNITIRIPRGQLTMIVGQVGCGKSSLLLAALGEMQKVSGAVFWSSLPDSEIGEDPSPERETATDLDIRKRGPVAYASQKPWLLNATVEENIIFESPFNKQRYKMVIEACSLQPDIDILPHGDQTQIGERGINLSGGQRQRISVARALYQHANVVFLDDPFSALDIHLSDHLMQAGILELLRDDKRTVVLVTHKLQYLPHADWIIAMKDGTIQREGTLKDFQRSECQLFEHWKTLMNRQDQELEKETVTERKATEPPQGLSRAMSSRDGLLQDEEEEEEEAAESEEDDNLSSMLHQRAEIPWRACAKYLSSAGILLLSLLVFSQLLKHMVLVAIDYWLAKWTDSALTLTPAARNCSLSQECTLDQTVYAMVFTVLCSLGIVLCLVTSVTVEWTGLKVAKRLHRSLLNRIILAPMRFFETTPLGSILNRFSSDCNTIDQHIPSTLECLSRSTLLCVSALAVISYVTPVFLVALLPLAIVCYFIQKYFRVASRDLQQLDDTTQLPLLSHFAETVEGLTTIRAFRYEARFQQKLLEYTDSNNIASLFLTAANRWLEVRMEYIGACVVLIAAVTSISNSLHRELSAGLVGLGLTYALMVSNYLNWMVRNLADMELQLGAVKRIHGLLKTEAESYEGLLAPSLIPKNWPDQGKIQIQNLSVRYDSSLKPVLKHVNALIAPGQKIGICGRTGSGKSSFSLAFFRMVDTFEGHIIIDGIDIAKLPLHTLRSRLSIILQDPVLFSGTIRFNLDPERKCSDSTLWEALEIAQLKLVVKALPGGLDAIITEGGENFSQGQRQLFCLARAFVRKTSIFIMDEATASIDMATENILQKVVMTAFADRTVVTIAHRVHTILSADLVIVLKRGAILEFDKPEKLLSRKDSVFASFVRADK
Chain of hSUR1/hKir6.2 (Q14654 whole entry): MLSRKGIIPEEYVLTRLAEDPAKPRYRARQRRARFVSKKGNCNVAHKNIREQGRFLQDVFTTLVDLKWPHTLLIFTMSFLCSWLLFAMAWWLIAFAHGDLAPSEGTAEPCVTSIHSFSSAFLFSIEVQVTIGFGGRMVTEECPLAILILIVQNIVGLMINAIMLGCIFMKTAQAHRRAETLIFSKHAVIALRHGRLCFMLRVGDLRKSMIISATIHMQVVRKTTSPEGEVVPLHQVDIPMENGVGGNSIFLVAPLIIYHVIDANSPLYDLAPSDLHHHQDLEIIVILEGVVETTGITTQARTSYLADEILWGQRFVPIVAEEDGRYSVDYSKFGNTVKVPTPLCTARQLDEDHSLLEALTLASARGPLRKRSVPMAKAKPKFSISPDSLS

Structure (SMILES) | melting point [°C] | Blockade hSUR1/hKiR6.2 (hSUR1/hKir6.2) [%] | Relengthening of the APD90 shortened by hypoxia [1] [%] | Fibrillation ratio (in %) [2] [%]
CCOc1ccc(CCNC(=O)/C=C/c2cccs2)cc1S(=O)(=O)NC(=S)NC [Example 9, 1-[5-(2-(trans-3-(2-Thienyl)acryloylamino)ethyl)-2-ethoxyphenylsulfonyl]-3-methyl-thiourea] | 74 |  |  | 
CCOCCOc1ccc(CCNC(=O)/C=C/c2cccs2)cc1S(=O)(=O)NC(=S)NC [Example 10, 1-[5-(2-(trans-3-(2-Thienyl)acryloylamino)ethyl)-2-(2-ethoxyethoxy)phenylsulfonyl]-3-methyl-thiourea] |  |  | 50 | 
COc1ccc(CCNC(=O)/C=C/c2cccs2)cc1S(=O)(=O)NC(=S)NC(C)C [Example 5, 1-[5-(2-(trans-3-(2-Thienyl)acryloylamino)ethyl)-2-methoxyphenyisulfonyl]-3-isopropyl-thiourea] | 96 |  |  | 
COCCOc1ccc(CCNC(=O)/C=C/c2cccs2)cc1S(=O)(=O)NC(=S)NC(C)C [Example 8, 1-[5-(2-(trans-3-(2-Thienyl)acryloylamino)ethyl)-2-(2-methoxyethoxy)phenylsulfonyl]-3-isopropyl-thiourea] | 101 |  |  | 
CNC(=O)NS(=O)(=O)c1cc(CCNC(=O)/C=C/c2cccs2)ccc1OCCOC [Example 7, 1-[5-(2-(trans-3-(2-Thienyl)acryloylamino)ethyl)-2-(2-methoxyethoxy)phenylsulfonyl]-3-methyl-urea] |  | 8.1 | 39 | 80
CNC(=S)NS(=O)(=O)c1cc(CCNC(=O)/C=C/c2cccs2)ccc1OCCOC [Example 6, 1-[5-(2-(trans-3-(2-Thienyl)acryloylamino)ethyl)-2-(2-methoxyethoxy)phenylsulfonyl]-3-methyl-thiourea] | 152 |  |  | 
CNC(=O)NS(=O)(=O)c1cc(CCNC(=O)/C=C/c2cccs2)ccc1OC [Example 3, 1-[5-(2-(trans-3-(2-Thienyl)acryloylamino)ethyl)-2-methoxyphenylsulfonyl]-3-methyl-urea] |  | 1.7 |  | 65
CNC(=S)NS(=O)(=O)c1cc(CCNC(=O)/C=C/c2cccs2)ccc1OC [Example 1, 1-[5-(2-(trans-3-(2-Thienyl)acryloylamino)ethyl)-2-methoxyphenylsulfonyl]-3-methyl-thiourea] |  | 30.7 | 33 | 

Further lines, with some results ahead:

melting point [°C] | Blockade hSUR1/hKiR6.2 (hSUR1/hKir6.2) [%] | Structure (SMILES) | Relengthening of the APD90 shortened by hypoxia [1] [%] | Fibrillation ratio (in %) [2] [%]
175 to 176 |  | CNC(=S)NS(=O)(=O)c1cc(CCNC(=O)/C=C/c2cccs2)ccc1-c1ccco1 [Example 17, 1-[5-(2-(trans-3-(2-Thienyl)acryloylamino)ethyl)-2-(2-furyl)phenylsulfonyl]-3-methyl-thiourea] |  | 
161 to 163 |  | CNC(=S)NS(=O)(=O)c1cc(CCNC(=O)/C=C/c2cccs2)ccc1OCCOC(F)(F)F [Example 16, 1-[5-(2-(trans-3-(2-Thienyl)acryloylamino)ethyl)-2-(2-(trifluoromethoxy)ethoxy)phenylsulfonyl]-3-methyl-thiourea] |  | 
78 |  | CNC(=S)NS(=O)(=O)c1cc(CCNC(=O)/C=C/c2cccs2)ccc1OCC1CCCO1 (stereo not drawn) [Example 14, 1-[5-(2-(trans-3-(2-Thienyl)acryloylamino)ethyl)-2-(tetrahydrofuran-2-ylmethoxy)phenylsulfonyl]-3-methyl-thiourea] |  | 
 | 5.9 | COCCOc1ccc(CCNC(=O)/C=C/c2ccccn2)cc1S(=O)(=O)NC(=S)NC(C)C [Example 20, 1-[5-(2-(trans-3-(2-Pyridyl)acryloylamino)ethyl)-2-(2-methoxyethoxy)phenylsulfonyl]-3-isopropyl-thiourea] | 26 | 80
65 |  | CCOCCOc1ccc(CCNC(=O)/C=C/c2cccs2)cc1S(=O)(=O)NC(=O)NC [Example 11, 1-[5-(2-(trans-3-(2-Thienyl)acryloylamino)ethyl)-2-(2-ethoxyethoxy)phenylsulfonyl]-3-methyl-urea] |  | 
188 |  | CNC(=S)NS(=O)(=O)c1cc(CCNC(=O)/C=C/c2ccccn2)ccc1OC [Example 18, 1-[5-(2-(trans-3-(2-Pyridyl)acryloylamino)ethyl)-2-methoxyphenylsulfonyl]-3-methyl-thiourea] |  | 
80 |  | CNC(=S)NS(=O)(=O)c1cc(CCNC(=O)/C=C/c2cccs2)ccc1OCC1CCCCO1 (stereo not drawn) [Example 15, 1-[5-(2-(trans-3-(2-Thienyl)acryloylamino)ethyl)-2-(tetrahydropyran-2-ylmethoxy)phenylsulfonyl]-3-methyl-thiourea] |  | 
